These results are taken from patent US4581359A, “Pharmacological treatments with N-7-substituted derivatives of theophylline” (priority 1984, dated 1986).

Data set [1] concerns mediator-induced broncoconstriction. The settings on record: cited from earlier work.
The conditions of data set [2]: cited from earlier work.
For data set [3] the following is noted: in vivo; cited from earlier work.
Data set [4] is described as follows: Concomitant dyphylline and aminophylline in two horses: plasma concentration, blood pressure, pulse (Example 3). The settings on record: for Cmax: peak plasma concentration of theophylline.
Experimental: Two horses were administered dyphylline and aminophylline concomitantly.
The second horse was given a bolus injection of dyphylline (20 mg/kg as 100 mg/ml solution in D5W) over 15 seconds into the jugular vein. Aminophylline infusion (10 mg/kg dissolved in one liter of D5W) was started immediately and administered over 20 minutes.
A short description of data set [5]: Fatal toxicity of theophylline, repeated aminophylline infusion in rabbits (Example 1). It counts as in vivo, female New Zealand White rabbits. The settings on record: for Vd: rabbit, blood, iv. The method, then:
Aminophylline (40 mg/kg) was infused into four rabbits over fifteen minutes once every two hours until the rabbits died. After the first infusion, blood concentrations of theophylline averaged about 100 mcg/ml in all four rabbits. […] In the second period total xanthine blood concentrations of theophylline averaged about 250 mcg/ml. Three rabbits died in this period with theophylline blood concentrations of about 250 mcg/ml. One rabbit died shortly after the third infusion which gave a blood theophylline concentration of about 400 mcg/ml. […] The last blood sample for each rabbit was collected immediately after the rabbit died.

Data set [6] can be described thus: Theophylline (aminophylline) intravenous infusion in rabbits: blood concentration, pharmacokinetics, toxicity (Example 1). It counts as in vivo, female New Zealand White rabbits. The settings on record: for visible toxicity: aminophylline 40 mg/kg over 15 minutes, three rabbits. The method, then:
Analytical grade chemicals were used without further purification. All water was distilled prior to use. 250 mg/10 ml aminophylline injection (Searle Laboratories, Chicago, Ill.) was diluted with an appropriate amount of distilled water for injection. Dyphylline powder (Lemmon Company, Sellersville, Pa.) was dissolved in distilled water for injection.
A high-pressure liquid chromatographic (HPLC) system consisted of a delivery pump (M-6000A, Waters Associates, Milford, Mass.), sample injection apparatus (Model U6K, Waters Associates, Milford, Mass.), 30-cm reverse phase column (μBondapak C18, Waters Associates, Milford, Mass.), UV detector (Model 440, Waters Associates, Milford, Mass.) with wavelength of 280 nm and a dual pen recorder (Soltec Co., Encino, Calif.) which were used at ambient temperature.
The internal standard used was β-hydroxypropyl theophylline (Aldrich Chemical Co., Inc., Milwaukee, Wis.) in acetonitrile which was prepared in a 500 ml volumetric flask as a stock solution, and kept tightly sealed except during use throughout the experiment. Internal standard solution (0.4 ml) was added to an equal volume (0.4 ml) of sample to precipitate protein. After centrifuging for 10 minutes, the supernatant was injected into the HPLC. The HPLC operating conditions included a mobile phase composed of acetonitrile (6 percent V/V) in distilled water and a flow rate of 2.0 ml/min.
A typical semilogrithmic plot of a blood theophylline concentration versus time curves, for each of the three rabbits after a zero-order aminophylline infusion of 40 mg/kg over fifteen minutes, is shown in FIG. 2. The data were fitted to a two-compartment open pharmacokinetic model with first order elimination using PROPHET (PROPHET computer system, FIT FUN routine, Director, Chemical/Biological Information Handling Program, Division of Research Resources, NIH, Bethesda, MD.) The parameters generated from three rabbits were corrected for infusion time, (as described by Gibaldi) and are listed in Table II.

The nature of data set [7]: Single and combined intravenous methyl xanthines in rabbits: heart rate, deaths, plasma concentrations (Example 6). It counts as in vivo, female rabbits. The settings on record: for heart rate, individual drug treatment: one rabbit each, normal about 220 bpm. The method, then:
T 40 mg/kg of aminophylline infused at the rate of 0.21 ml/min over 30
T/D 40 mg/kg of aminophylline infused at the rate of 0.21 ml/min over 30
T/E 40 mg/kg of aminophylline infused at the rate of 0.21 ml/min over 30
T/P 40 mg/kg of aminophylline infused at the rate of 0.21 ml/min over 30

The conditions of data set [8]: cited from earlier work. The source holds these as a separate data set.
For data set [9] the following is noted: Winter; cited from earlier work.
The conditions of data set [10]: in vivo.
Experimental: (§1) One horse was administered acetyl promazine thiamyol sodium, quaifensin, and halothane to produce general anesthesia. Dyphylline (20 mg/kg) was given as an intravenous bolus injection in less than 15 seconds and aminophylline (10 mg/kg) was given as an infusion over about 20 minutes. Plasma and cerebral spinal fluid were collected and assayed by high pressure liquid chromatography for both dyphylline and theophylline.
For data set [11] the following is noted: cited from earlier work. This is another data set of the same source.
The nature of data set [12]: Concurrent administration of theophylline and dyphylline in rabbits: pharmacokinetics and toxicity (Example 1). The settings on record: rabbit, iv, 40 mg/kg. The method, then:
All experiments of this example were performed using female New Zealand White rabbits. These rabbits (2.4-3.6 kg) were housed in a controlled environment and allowed free access to water and food.
Before dosing with drug the rabbit ear hair was clipped and treated with hair remover lotion (sold under the trademark NAIR, Carter-Wallace, Inc., New York, N.Y.), a catheter (Quick-Cath, 20 Ga, Travenol Laboratories, Inc., Deerfield, Ill.) and sterile intermittent infusion plug were then inserted in the rabbit's ear vein for infusion. […] For each separate administration of theophylline, a suitable amount of aminophylline (40 mg/kg) was dissolved in distilled water to make 10 ml injectable solution which was administered into a rabbit's ear vein as a continuous infusion over a period of 15 minutes.
Blood samples were collected from an ear vein (in the opposite ear from the infusion) at predetermined time intervals. Before collecting each sample, the rabbit ear was treated topically with xylene to dilate the ear vein for convenient sample collection. Immediately after each blood sample was drawn, 0.4 ml of blood was transfered to the centrifuge tube and 0.4 ml of acetronitrile with appropriate internal standard was added to precipitate the protein and extract drug components. After vortexing well, the blood acetonitrile mixture was centrifuged at 3000×G for ten minutes, and 10 μl of supernatent solution was then injected into the HPLC.
The post infusion data of theophylline were fitted to a two-compartment open model using the same procedure as described above. Although samples were collected while infusion of dyphylline was continuing, only post infusion data were used for dyphylline pharmacokinetic analysis.

Data set [13] in a line: Plasma and cerebral spinal fluid concentrations in an anesthetized horse (Example 4). The settings on record: 0, 30 mins, 1 hour, 2 hours, 3 hours, 4 hours, 24 hours; for Cerebral spinal fluid concentration, theophylline: aminophylline 10 mg/kg + dyphylline 20 mg/kg bolus.
Experimental: as §1

Values joined by “and” are separate entries in the source; they are usually repeats but may differ in a detail not shown here. Identical values can stand only once. Like-named read-outs stand apart in the source and are kept apart here.

Take `Cn1c(=O)c2c(ncn2CC(=O)O)n(C)c1=O` [acephylline, 1,3-dimethylxanthinylacetic acid]: the “efficacy against mediator-induced broncoconstriction” value in [1] (guinea-pigs) was “ineffective”. The “conversion to theophylline in the body” value in data set [2] (literature) is “not converted to theophylline in the body”. The oral absorption result in data set [3] was “not absorbed orally”.

`Cn1c(=O)c2[nH]cnc2n(C)c1=O` [aminophylline]: in data set [4] (10 min to 240 min as for systolic, Horse 1, time 0: 42), the “Pulse, Horse 1” value was 44 beats per minute and 60 beats per minute and 56 beats per minute. Besides, the “Blood pressure Mean, Horse 1” value in data set [4] (10 min to 240 min as for systolic, Horse 1, time 0: 119) was 106 and 156 and 123. Besides, in data set [4] (10 min to 240 min as for systolic, Horse 1, time 0: 156/98), the “Blood pressure D, Horse 1” value is 83 and 117 and 90. For the same molecule, the toxicity and death result in data set [5] (aminophylline 40 mg/kg every two hours until death) was “All the rabbits died following a short period of severe convulsions”. The visible toxicity entry in data set [6] is reported as “caused some visible toxicity but was not lethal”.

As for `Cn1c(=O)c2c(ncn2CCO)n(C)c1=O` [etophylline, β-hydroxyethylthophylline], in data set [7], the “heart rate, individual drug treatment” value stood at 100 bpm. In addition, in data set [1] (based on effective plasma drug concentrations), the “activity relative to theophylline” value is on record as 0.44 times theophylline. The “conversion to theophylline in the body” value in [2] (in vivo) is “not converted to theophylline in the body”.

Take `CC(O)Cn1cnc2c1c(=O)n(C)c(=O)n2C` (stereo not drawn) [proxyphylline, 7-β-hydroxypropyl-theophylline]: the “heart rate, individual drug treatment” value in [7] is recorded as “about 96 bpm”. In addition, the “plasma concentration of proxyphylline” value in data set [8] (combined with theophylline and dyphylline (Bracher; Werdermann)) is recorded as “less than 9.0 mcg/ml”. The “plasma concentration, each drug” value in data set [8] (dyphylline and proxyphylline (Joos et al.), 90 min) is listed as “about 13 mcg/ml”.

For `Cn1c(=O)c2[nH]cnc2n(C)c1=O` [theophylline], the “total volume of distribution, average” value in data set [9] is given as “about 0.48 L/kg”. Also, the concentration at 40 min in [4] (horse, in vivo, iv, 10 mg/kg) lay within 9 to 10 µg/mL. Also, the Cmax – broadly, the peak of the concentration-time curve – in [4] (horse, in vivo, iv, 10 mg/kg, first horse, aminophylline 10 mg/kg over 17 minutes, dyphylline 20 mg/kg bolus at 40 minutes) is 18 µg/mL; in data set [4] (horse, in vivo, iv, 10 mg/kg, second horse, dyphylline 20 mg/kg bolus then aminophylline 10 mg/kg over 20 minutes), 35 µg/mL. For the same molecule, the toxicity result in data set [7] (rabbits) is “close to lethal”. In addition, in data set [10], the “penetration into cerebral spinal fluid” value was “penetrate into cerebral spinal fluid”. For the same molecule, the effective plasma concentration in data set [11] (humans) was 10 to 20 µg/mL. Moreover, in data set [11] (literature), the “effectiveness and toxicity, dyphylline versus theophylline” value is “more effective and toxic than dyphylline”. Also, the “effects of excessive dose or too rapid administration” value in data set [11] (total dose in less than about twenty minutes) is “blood pressure drop and may develop convulsions which in some instances lead to death”. Moreover, in [5] (four rabbits, all survived first period, 40 mg/kg), the “average blood concentration of theophylline after first infusion” value is reported as “about 100 mcg/ml”. Also, the “volume of distribution (Vd), individual rabbits” value in data set [5] (from FIG. 3 data 1 to 2 hours, prior to second infusion, 40 mg/kg) was 0.32 L/kg and 0.33 L/kg. In [5] (one rabbit, 40 mg/kg), the “blood theophylline concentration after third infusion (rabbit died)” value is recorded as “about 400 mcg/ml”. For the same molecule, the Vd (in general, the apparent volume that relates the amount in the body to the concentration in plasma or blood) was 0.37 L/kg in data set [5] (40 mg/kg, from FIG. 3 data 1 to 2 hours, prior to second infusion, read-out: volume of distribution (Vd), individual rabbits); 0.35 L/kg in data set [5] (40 mg/kg, from FIG. 3 data 1 to 2 hours, four rabbits, read-out: volume of distribution (Vd), average); 0.35 L/kg in data set [12] (in vivo, Vd(B), theophylline followed by dyphylline, b237, b241, b245, b249 rabbits 45-48, b250 mean); 0.151 L/kg in data set [12] (Vc); 0.403 L/kg in [12] (Vd(B)); approximately 0.35 L/kg in data set [12] (average total volume of distribution of theophylline given with dyphylline). The volume of distribution (Vd) in data set [6] (rabbit, in vivo, iv, 40 mg/kg, Vd) was 0.279 L/kg; in data set [6] (rabbit, in vivo, iv, 40 mg/kg, Vel (β)), 0.562 L/kg; in data set [6] (rabbit, in vivo, iv, 40 mg/kg, average total volume of distribution of theophylline given alone), approximately 0.59 L/kg. Besides, the “average blood concentration of theophylline, second period (three rabbits died)” value in [5] (second infusion, 40 mg/kg) is recorded as “about 250 mcg/ml”. The “theophylline concentration causing convulsions and death” value in data set [5] (theophylline alone) is approximately 250 µg/mL. Moreover, the concentration at 0.25 h in data set [12] is approximately 150 µg/mL; in data set [6] (rabbit, in vivo, iv, 40 mg/kg, average blood concentration of theophylline immediately after stopping the infusion, Table II rabbits), approximately 100 µg/mL; in [6] (rabbit, in vivo, iv, 40 mg/kg, blood concentration of theophylline when the infusion was stopped) it was 110 to 130 µg/mL. Besides, the half-life (usually the time needed for the level to fall by half in the phase considered) in data set [12] (average half-life of theophylline) is 6 to 6.5 h; in [6] (rabbit, in vivo, iv, 40 mg/kg, aminophylline 40 mg/kg, alone, rabbits 29, 30, 32, mean) it was 5.73 h. Moreover, the visible toxicity result in data set [6] is “one rabbit exhibited obvious signs of theophylline toxicity”. Besides, in [6] (aminophylline 40 mg/kg, alone, rabbits 29, 30, 32, mean, 40 mg/kg), the t1/2 is 6.3 h and 6.861 h and 6.30 h. The k el in [6] (rabbit, in vivo, iv, 40 mg/kg, k10) was 6.75e-05 s⁻¹. Moreover, the tissue distribution result in data set [2] (literature) was “penetrate the central nervous system, to infiltrate heart tissue and to distribute to lung tissue”. Further, the entries for the “Cerebral spinal fluid concentration, theophylline” value in [13] and in data set [13] (10 mg/kg) were 0 µg/mL and 5.3 µg/mL, respectively. Further, in [13] (aminophylline 10 mg/kg over 20 min + dyphylline 20 mg/kg bolus), the “Plasma concentration, theophylline” value came to 0 ng/mL.
